Results as given in paper PMC9598561, “Antileishmanial Activity of 4,8-Dimethoxynaphthalenyl Chalcones on Leishmania amazonensis” (Antibiotics, 2022).

Experiments:
[1] = system: L. amazonensis promastigotes; assay: Antipromastigote activity, MTT assay; assay type: cell-based, Leishmania amazonensis; details: for SI = selectivity index (CC50/IC50): CC50 macrophages / IC50 promastigotes; for IC50: Leishmania amazonensis, L. amazonensis promastigotes, 24 h, MTT, IC50 ± SEM
Method: The promastigote forms of L. amazonensis (MHOM/BR/1989/166MJO) were maintained in culture medium 199 (GIBCO, Invitrogen, New York, NY, USA) pH 7.18–7.22 supplemented with 10% fetal bovine serum (FBS) (GIBCO, Invitrogen, New York, NY, USA), 1M HEPES buffer, 1% human urine, 1% L-glutamine, 10 µg/mL streptomycin and 10 U/mL penicillin (GIBCO, Invitrogen, NY, USA) and 10% sodium bicarbonate. The parasite culture was maintained in a B.O.D. incubator at 24 °C in 25 cm^2 culture flasks. In all experiments, promastigote forms in the stationary growth phase were used (5-day culture).
The activities were evaluated by the 3-(4,5-dimethylthiazol-2-yl)-2,5-diphenyltetrazolium bromide (MTT) assay. L. amazonensis promastigote forms (10^6 cells/mL) were placed in 96-well plates and treated with the chalcone derivatives (4a–i) at different concentrations (10, 25, 50, and 130 µM) and maintained in a B.O.D incubator for 24 h at 24 °C. A solution of MTT (10 μL of a 5 mg/mL stock) (Sigma-Aldrich, St. Louis, MO, USA) was added to each well, and after 4 h, the plates were evaluated at λ = 550 nm using a spectrophotometer (Thermo Fisher Scientific, Multiskan GO, Waltham, MA, USA). L. amazonensis promastigotes maintained in culture M199 medium without treatment or with 0.01% DMSO (Sigma-Aldrich, St. Louis, MO, USA) served as negative and vehicle controls. 1 μM amphotericin B (AmB) (Sigma-Aldrich, St. Louis, MO, USA) was used as a positive control. The results of antipromastigote activities were expressed as half-maximal inhibitory concentrations for 50% of parasites (IC50) in μM. The IC50 values were calculated as the average of three independent experiments performed in duplicates.
(§1) The half-maximal inhibitory concentration for 50% of parasites (IC50) was determined on L. amazonensis promastigotes treated with the nine compounds, and the cytotoxic concentration that causes the death of 50% of cells (CC50) on murine macrophages (J774A.1). IC50 and CC50 were calculated by nonlinear regression using GraphPad Prism statistical software (GraphPad Software, Inc., USA, 500.288). The tested compounds’ selectivity index was expressed as SI = CC50 on […] macrophages/IC50 on promastigotes forms.

[2] = Cytotoxicity on murine macrophages, MTT assay; assay type: cell-based; details: mouse, J774A.1 macrophage cell line, J774A.1 macrophages, CC50 ± SEM
Method: The cytotoxic effect of compounds 4a–i on murine macrophage cell lines J774A.1 (TIB-67, ATCC, Manassas, VA, USA) was assessed using the MTT assay (3-(4,5-dimethylthiazol-2-yl)-2,5-diphenyltetrazolium bromide) (Sigma-Aldrich, St. Louis, MO, USA), [14]. Macrophages were seeded in 96-well plates at a density of 10^4 cells/well and were cultured with 4a–i at different concentrations (10, 25, 50, and 130 µM) for 24 h (37 °C, 5% CO2). The cells were washed, MTT (5 mg/mL) added, and the cells were incubated for 4 h. The MTT product was diluted with 100 μL of DMSO (Sigma-Aldrich, St. Louis, MO, USA) and analyzed at 550 nm in a spectrophotometer (Thermo Fisher Scientific, Multiskan GO, Waltham, MA, USA) at 550 nm. 0.5% H2O2 (Merck, Darmstadt, Germany) was used as a positive control. The results were expressed as the percentage of viable cells compared to the control group. The cytotoxic concentration for 50% of the cells (CC50) was calculated by nonlinear regression to the dose-response curve using GraphPad Prism statistical software (GraphPad Software, Inc., San Diego, CA, USA, 500.288).
as §1

[3] = system: L. amazonensis intracellular amastigotes; assay: Antiamastigote assay in infected J774A.1 macrophages; assay type: cell-based, Leishmania amazonensis; details: 24 h; for reduction of infected macrophages: mean ± SEM
Method: Murine macrophages J774A.1 (5 × 10^5 cell/mL) were cultivated in 24-well plates. After infection, the non-internalized promastigotes were removed by washing with PBS, and the adherent macrophages infected were treated with the most promising chalcone (4f) in non-cytotoxic concentrations (10, 25, 50, and 130 μM) for 24 h (37 °C, 5% CO2). RPMI 1640 medium, DMSO (0.01%), and AmB (1 μM) were used as a negative control, vehicle, and positive control, respectively. Then, cells were stained with Leishman (Laborclin, Pinhais, Brazil), and 20 fields were analyzed by increased immersion (1000× magnification) using an optical microscope (Olympus BX41, Olympus Optical Co., Ltd., Tokyo, Japan) to determine the % of infected macrophages and the number of amastigotes/cells.

[4] = system: L. amazonensis promastigotes; assay: ROS generation in promastigotes (H2DCFDA probe); assay type: cell-based, Leishmania amazonensis; details: 3.3 μM and 6.6 μM, 24 h
Method: As a positive control, hydrogen peroxide (0.4% H2O2) was used, and the vehicle (DMSO 0.01%) was used for a negative control. ROS was measured as an increase in fluorescence caused by converting the non-fluorescent dye to the fluorescent 2.7-dichlorofluorescein, with an excitation wavelength of 488 nm and emission of 530 nm in a fluorescence microplate reader (Victor X3, PerkinElmer, Turku, Finland).

[5] = system: L. amazonensis promastigotes; assay: Mitochondrial membrane potential (TMRE); assay type: cell-based, Leishmania amazonensis; details: 3.3 μM and 6.6 μM, 24 h
Method: To evaluate if the most promising chalcone (4f) alters the mitochondrial membrane potential, we conducted an assay using a tetramethylrhodamine ethyl ester (TMRE) staining (Sigma-Aldrich, St. Louis, MO, USA). […] Carbonyl cyanide m-chlorophenylhydrazone (100 μM) (CCCP) (Sigma-Aldrich, St. Louis, MO, USA) was used as a positive control, and the vehicle (DMSO 0.01%) was used as a negative control.

[6] = system: L. amazonensis promastigotes; assay: SEM and TEM morphological and ultrastructural analysis; assay type: cell-based, Leishmania amazonensis; details: 3.3 μM and 6.6 μM, 24 h
Method: SEM was performed to analyze morphological changes in the cell surface topography. […] After the treatment, the parasites were fixed in 2.5% glutaraldehyde (Merck, Darmstadt, Germany) in 0.1 M sodium cacodylate buffer (Sigma-Aldrich, St. Louis, MO, USA) and adhered to coverslips covered with poly-L-lysine (Sigma-Aldrich, St. Louis, MO, USA) for 60 min. Parasites were dehydrated with increasing ethanol (Synth, Diadema, Brazil) concentrations (30–100%), submitted to critical point drying (Baltec SCD-030), metalized with gold, and visualized on a high-resolution double beam electron microscope FEI SCIOS.
To evaluate the ultrastructural changes by TEM, promastigotes were treated and fixed as described above. After the samples were post-fixed with 1% OsO4 (Sigma-Aldrich, St. Louis, MO, USA), 0.8% potassium ferrocyanide (Sigma-Aldrich, St. Louis, MO, USA), and 10.0 mM CaCl2 (Synth, Diadema, Brazil) in 0.1 M sodium cacodylate buffer for 1 h at room temperature and protected from light. Samples were washed in 0.1 M sodium cacodylate buffer, dehydrated in increased concentration of acetone (Synth, Diadema, Brazil) (50–100%), including in EPON resin, and polymerized at 60 °C for 72 h. […]

| Structure (SMILES) | IC50 [1] [µM] | SI = selectivity index (CC50/IC50) [1] | CC50 at 24 h [2] [µM] | other results |
| --- | --- | --- | --- | --- |
| C[C@@H]1[C@H](O)[C@@H](C)/C=C/C=C/C=C/C=C/C=C/C=C/C=C/[C@H](O[C@@H]2O[C@H](C)[C@@H](O)[C@H](N)[C@@H]2O)C[C@@H]2O[C@](O)(C[C@@H](O)C[C@@H](O)[C@H](O)CC[C@@H](O)C[C@@H](O)CC(=O)O[C@H]1C)C[C@H](O)[C@H]2C(=O)O [AmB, Amphotericin B, reference compound] | 0.68 ± 0.21 | 73.17 | 49.7 | reduction in the percentage of infected macrophages ([3]; 1 μM, positive control): 95.25 ± 0.65%; reduction of number of amastigotes per macrophage ([3]; 1 μM, positive control): 89.55 ± 0.05% |
| COc1ccc(/C=C/C(=O)c2ccc(OC)c3cccc(OC)c23)cc1 [Compound 4a, (E)-1-(4,8-dimethoxynaphthalen-1-yl)-3-(4-methoxyphenyl)prop-2-en-1-one] | 264.1 ± 0.12 | 1.7 | 414.8 ± 0.04 |  |
| COc1ccc(C(=O)/C=C/c2ccc(Cl)cc2Cl)c2c(OC)cccc12 [Compound 4e, (E)-3-(2,4-dichlorophenyl)-1-(4,8-dimethoxynaphthalen-1-yl)prop-2-en-1-one] | 37.7 ± 0.06 |  | 561.1 ± 0.03 |  |
| COc1ccc(C(=O)/C=C/c2ccc([N+](=O)[O-])cc2)c2c(OC)cccc12 [Compound 4f, (E)-1-(4,8-dimethoxynaphthalen-1-yl)-3-(4-nitrophenyl)prop-2-en-1-one] | 3.3 ± 0.34 | 112.6 | 372.9 ± 0.04 | reduction of number of amastigotes per macrophage ([3]; 10 μM, compared to controls): 14.14 ± 0.04%; reduction of infected macrophages ([3]; 10 μM): 23.81 ± 1.07%; reduction of number of amastigotes per macrophage ([3]; 25 μM, compared to controls): 36.20 ± 0.02%; reduction of infected macrophages ([3]; 25 μM): 35.78 ± 1.59%; reduction of number of amastigotes per macrophage ([3]; 50 μM, compared to controls): 39.33 ± 0.03%; reduction of infected macrophages ([3]; 50 μM): 42.15 ± 0.49%; reduction of infected macrophages ([3]; 130 μM): 63.04 ± 0.35%; IC50 ([3]; Leishmania amazonensis, J774.A1, L. amazonensis-infected J774A.1 macrophages): 18.5 ± 1.19 µM; intracellular ROS levels (DCF fluorescence) [4]: substantial rise in the intracellular ROS levels; mitochondrial membrane potential (ΔΨm), TMRE [5]: reduces the potential of the mitochondrial membrane (ΔΨm); ultrastructural changes (TEM) [6]: an increase in autophagic vacuoles, lipid-storage bodies accumulation, mitochondrial swelling, and nuclear alterations |

More lines, in order of falling IC50 [1], values ahead:

| IC50 [1] [µM] | Structure (SMILES) | SI = selectivity index (CC50/IC50) [1] | CC50 at 24 h [2] [µM] | other results |
| --- | --- | --- | --- | --- |
| 94.1 ± 0.06 | COc1ccc(C(=O)/C=C/c2c(Cl)cccc2Cl)c2c(OC)cccc12 [Compound 4d, (E)-3-(2,6-dichlorophenyl)-1-(4,8-dimethoxynaphthalen-1-yl)prop-2-en-1-one] |  | 126.8 ± 0.09 |  |
| 67.1 ± 0.16 | COc1cccc(/C=C/C(=O)c2ccc(OC)c3cccc(OC)c23)c1 [Compound 4b, (E)-1-(4,8-dimethoxynaphthalen-1-yl)-3-(3-methoxyphenyl)prop-2-en-1-one] | 3.7 | 246.7 ± 0.03 |  |
| 26.1 ± 0.09 | COc1ccc(C(=O)/C=C/c2ccccc2)c2c(OC)cccc12 [Compound 4h, (E)-1-(4,8-dimethoxynaphthalen-1-yl)-3-phenylprop-2-en-1-one] | 33.44 | 872.3 ± 0.134 |  |
| 24.3 ± 0.05 | COc1ccc(C(=O)/C=C/c2ccc(Br)cc2)c2c(OC)cccc12 [Compound 4i, (E)-3-(4-bromophenyl)-1-(4,8-dimethoxynaphthalen-1-yl)prop-2-en-1-one] | 17.8 | 434 ± 0.05 |  |
| 14.5 ± 0.09 | COc1ccc(C(=O)/C=C/c2cccc([N+](=O)[O-])c2)c2c(OC)cccc12 [Compound 4g, (E)-1-(4,8-dimethoxynaphthalen-1-yl)-3-(3-nitrophenyl)prop-2-en-1-one] | 23.2 | 366 ± 0.13 |  |
| 13.4 ± 0.08 | COc1ccc(C(=O)/C=C/c2ccc(Cl)c(Cl)c2)c2c(OC)cccc12 [Compound 4c, (E)-3-(3,4-dichlorophenyl)-1-(4,8-dimethoxynaphthalen-1-yl)prop-2-en-1-one] | 14.5 | 194.3 ± 0.06 |  |
